{
  "source": "ChEMBL document CHEMBL1201862",
  "about": "“PubChem BioAssay data set” (2004)",
  "test_in_all_cases": "inhibition of tumour cell growth, NCI panel, 48 h",
  "key": {"[1]": {"system": "HOP-18"}, "[2]": {"system": "SNB-75"}, "[3]": {"system": "SW-620"}, "[4]": {"system": "OVCAR-3"}, "[5]": {"system": "KM-20L2"}, "[6]": {"system": "UACC-62"}, "[7]": {"system": "OVCAR-8"}, "[8]": {"system": "MOLT-4"}, "[9]": {"system": "SR"}, "[10]": {"system": "UO-31"}, "[11]": {"system": "SNB-19"}, "[12]": {"system": "NCI-H23"}, "[13]": {"system": "OVCAR-4"}, "[14]": {"system": "M14"}, "[15]": {"system": "SK-MEL-2"}, "[16]": {"system": "RXF 393"}, "[17]": {"system": "HCT-15"}, "[18]": {"system": "HL-60"}, "[19]": {"system": "CCRF-CEM"}, "[20]": {"system": "SF-268"}, "[21]": {"system": "A549"}, "[22]": {"system": "EKVX"}, "[23]": {"system": "OVCAR-5"}, "[24]": {"system": "LOX IMVI"}, "[25]": {"system": "HCT-116"}, "[26]": {"system": "HCC 2998"}, "[27]": {"system": "KM12"}, "[28]": {"system": "IGROV-1"}, "[29]": {"system": "UACC-257"}, "[30]": {"system": "SK-MEL-28"}, "[31]": {"system": "SK-MEL-5"}, "[32]": {"system": "LXFL 529"}, "[33]": {"system": "HOP-92"}, "[34]": {"system": "DMS-273"}, "[35]": {"system": "ACHN"}, "[36]": {"system": "SNB-78"}, "[37]": {"system": "M19-MEL"}, "[38]": {"system": "HOP-62"}, "[39]": {"system": "COLO 205"}, "[40]": {"system": "TK-10"}, "[41]": {"system": "RPMI-8226"}, "[42]": {"system": "U-251"}, "[43]": {"system": "NCI-H226"}, "[44]": {"system": "NCI-H460"}, "[45]": {"system": "K562"}, "[46]": {"system": "SN12C"}, "[47]": {"system": "HT-29"}, "[48]": {"system": "SK-OV-3"}, "[49]": {"system": "SF-539"}, "[50]": {"system": "NCI-H522"}, "[51]": {"system": "SF-295"}, "[52]": {"system": "A498"}, "[53]": {"system": "DMS-114"}},
  "note": "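In this assay, cells in 96-well plates receive the compound at five concentrations for 48 hours. Endpoints are linearly interpolated between the surrounding concentrations. GI50 = concentration required for 50% inhibition of growth.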 Active and inactive are the calls of the source. Rule as the data show it: active = GI50 up to about 1.1 µM and inactive = higher.",
  "data": [
    {"compound": "NCc1ccccc1-c1c2nc(c(-c3ccccc3CN)c3ccc([nH]3)c(-c3ccccc3CN)c3nc(c(-c4ccccc4CN)c4ccc1[nH]4)C=C3)C=C2", "values": [
      {"measurement": "GI50", "setting": "[1]", "value": "1.18 µM (inactive)"},
      {"measurement": "GI50", "setting": "[2]", "value": "5.96 µM (inactive)"},
      {"measurement": "GI50", "setting": "[3]", "value": "34.1 µM (inactive)"},
      {"measurement": "GI50", "setting": "[4]", "value": "16.2 µM (inactive)"},
      {"measurement": "GI50", "setting": "[5]", "value": "19.7 µM (inactive)"},
      {"measurement": "GI50", "setting": "[6]", "value": "24.9 µM (inactive)"},
      {"measurement": "GI50", "setting": "[7]", "value": "37 µM (inactive)"},
      {"measurement": "GI50", "setting": "[8]", "value": "> 10 µM (inactive)"},
      {"measurement": "GI50", "setting": "[9]", "value": "> 10 µM (inactive)"},
      {"measurement": "GI50", "setting": "[10]", "value": "18.5 µM (inactive)"},
      {"measurement": "GI50", "setting": "[11]", "value": "18.6 µM (inactive)"},
      {"measurement": "GI50", "setting": "[12]", "value": "21.8 µM (inactive)"},
      {"measurement": "GI50", "setting": "[13]", "value": "19.4 µM (inactive)"},
      {"measurement": "GI50", "setting": "[14]", "value": "21 µM (inactive)"},
      {"measurement": "GI50", "setting": "[15]", "value": "24.7 µM (inactive)"},
      {"measurement": "GI50", "setting": "[16]", "value": "13.1 µM (inactive)"},
      {"measurement": "GI50", "setting": "[17]", "value": 22, "unit": "µM"},
      {"measurement": "GI50", "setting": "[18]", "value": "14.5 µM (inactive)"},
      {"measurement": "GI50", "setting": "[19]", "value": "4.17 µM (inactive)"},
      {"measurement": "GI50", "setting": "[20]", "value": "20.8 µM (inactive)"},
      {"measurement": "GI50", "setting": "[21]", "value": "22.1 µM (inactive)"},
      {"measurement": "GI50", "setting": "[22]", "value": "23.8 µM (inactive)"},
      {"measurement": "GI50", "setting": "[23]", "value": "13.9 µM (inactive)"},
      {"measurement": "GI50", "setting": "[24]", "value": "19.7 µM (inactive)"},
      {"measurement": "GI50", "setting": "[25]", "value": "13.7 µM (inactive)"},
      {"measurement": "GI50", "setting": "[26]", "value": "25.9 µM (inactive)"},
      {"measurement": "GI50", "setting": "[27]", "value": "20 µM (inactive)"},
      {"measurement": "GI50", "setting": "[28]", "value": "23.7 µM (inactive)"},
      {"measurement": "GI50", "setting": "[29]", "value": "20.3 µM (inactive)"},
      {"measurement": "GI50", "setting": "[30]", "value": "19 µM (inactive)"},
      {"measurement": "GI50", "setting": "[31]", "value": "22.9 µM (inactive)"},
      {"measurement": "GI50", "setting": "[32]", "value": "22.1 µM (inactive)"},
      {"measurement": "GI50", "setting": "[33]", "value": "7.08 µM (inactive)"},
      {"measurement": "GI50", "setting": "[34]", "value": "7.36 µM (inactive)"},
      {"measurement": "GI50", "setting": "[35]", "value": "16.4 µM (inactive)"},
      {"measurement": "GI50", "setting": "[36]", "value": "16.7 µM (inactive)"},
      {"measurement": "GI50", "setting": "[37]", "value": "22.2 µM (inactive)"},
      {"measurement": "GI50", "setting": "[38]", "value": "22.1 µM (inactive)"},
      {"measurement": "GI50", "setting": "[39]", "value": "29.8 µM (inactive)"},
      {"measurement": "GI50", "setting": "[40]", "value": "27.5 µM (inactive)"},
      {"measurement": "GI50", "setting": "[41]", "value": "12.4 µM (inactive)"},
      {"measurement": "GI50", "setting": "[42]", "value": "18.5 µM (inactive)"},
      {"measurement": "GI50", "setting": "[43]", "value": "13.9 µM (inactive)"},
      {"measurement": "GI50", "setting": "[44]", "value": "19.1 µM (inactive)"},
      {"measurement": "GI50", "setting": "[45]", "value": "14.5 µM (inactive)"},
      {"measurement": "GI50", "setting": "[46]", "value": "18.7 µM (inactive)"},
      {"measurement": "GI50", "setting": "[47]", "value": "28.2 µM (inactive)"}
    ]},
    {"compound": "CCO[C@@H]1OC(=O)[C@](C)(C(C)=O)[C@@H]1C", "values": [
      {"measurement": "GI50", "setting": "[2]", "value": "0.21 µM (active)"},
      {"measurement": "GI50", "setting": "[4]", "value": "29 µM (inactive)"},
      {"measurement": "GI50", "setting": "[5]", "value": "> 100 µM (inactive)"},
      {"measurement": "GI50", "setting": "[6]", "value": "57.8 µM (inactive)"},
      {"measurement": "GI50", "setting": "[48]", "value": "59 µM (inactive)"},
      {"measurement": "GI50", "setting": "[8]", "value": "23.3 µM (inactive)"},
      {"measurement": "GI50", "setting": "[9]", "value": "27.9 µM (inactive)"},
      {"measurement": "GI50", "setting": "[10]", "value": "> 100 µM (inactive)"},
      {"measurement": "GI50", "setting": "[11]", "value": "75.3 µM (inactive)"},
      {"measurement": "GI50", "setting": "[12]", "value": "16.8 µM (inactive)"},
      {"measurement": "GI50", "setting": "[13]", "value": "71.9 µM (inactive)"},
      {"measurement": "GI50", "setting": "[14]", "value": "67 µM (inactive)"},
      {"measurement": "GI50", "setting": "[15]", "value": "55.2 µM (inactive)"},
      {"measurement": "GI50", "setting": "[16]", "value": "41.5 µM (inactive)"},
      {"measurement": "GI50", "setting": "[49]", "value": "23.1 µM (inactive)"},
      {"measurement": "GI50", "setting": "[18]", "value": "17.9 µM (inactive)"},
      {"measurement": "GI50", "setting": "[50]", "value": "> 100 µM (inactive)"},
      {"measurement": "GI50", "setting": "[51]", "value": "36.8 µM (inactive)"},
      {"measurement": "GI50", "setting": "[19]", "value": "14.7 µM (inactive)"},
      {"measurement": "GI50", "setting": "[20]", "value": "14.7 µM (inactive)"},
      {"measurement": "GI50", "setting": "[23]", "value": "> 100 µM (inactive)"},
      {"measurement": "GI50", "setting": "[27]", "value": "> 100 µM (inactive)"},
      {"measurement": "GI50", "setting": "[28]", "value": "> 100 µM (inactive)"},
      {"measurement": "GI50", "setting": "[29]", "value": "> 100 µM (inactive)"},
      {"measurement": "GI50", "setting": "[30]", "value": "37.5 µM (inactive)"},
      {"measurement": "GI50", "setting": "[32]", "value": "40.6 µM (inactive)"},
      {"measurement": "GI50", "setting": "[33]", "value": "27.5 µM (inactive)"},
      {"measurement": "GI50", "setting": "[52]", "value": "> 100 µM (inactive)"},
      {"measurement": "GI50", "setting": "[35]", "value": "> 100 µM (inactive)"},
      {"measurement": "GI50", "setting": "[36]", "value": "33.7 µM (inactive)"},
      {"measurement": "GI50", "setting": "[37]", "value": "58.1 µM (inactive)"},
      {"measurement": "GI50", "setting": "[38]", "value": "43.2 µM (inactive)"},
      {"measurement": "GI50", "setting": "[39]", "value": "> 100 µM (inactive)"},
      {"measurement": "GI50", "setting": "[53]", "value": "37.2 µM (inactive)"},
      {"measurement": "GI50", "setting": "[41]", "value": "18.8 µM (inactive)"},
      {"measurement": "GI50", "setting": "[42]", "value": "34.4 µM (inactive)"},
      {"measurement": "GI50", "setting": "[44]", "value": "> 100 µM (inactive)"},
      {"measurement": "GI50", "setting": "[45]", "value": "44.2 µM (inactive)"},
      {"measurement": "GI50", "setting": "[47]", "value": "68.4 µM (inactive)"}
    ]}
  ]
}
